Experimental data reported in US20030077653A1, “Method for the identification of active site protease inactivators” (The University of Georgia Research Foundation, Inc., priority 2000, published 2003).
Residues, ends and D or L forms follow the SMILES beside them. *: point of attachment. AFC = O=c1cc(C(F)(F)F)c2ccc(N*)cc2o1; Cbz = O=C(OCc1ccccc1)*; Boc = CC(C)(C)OC(=O)*

Legend:
Type in all cases: biochemical
[1] = tested on: purified Taenia solium cysteine protease; test: Competitor assay: vehicle inhibition of cleavage of high Vmax AFC substrate cocktails (Step III); details: purified protease; P = inhibition with first (1.4%) cocktail, M = inhibition with last (7.4%) cocktail
Experimental: (We employed “Vmax” here although Kcat could also be used). Due to the lower number of substrates, a percentage was not chosen for the “BOTTOM %” substrates. Alternately, all substrates which were not cleaved as determined by a value of 10 μM/hr or less, were chosen to be tested in this step for competitive ability. From this point forth, the term “vehicle” will represent low Vmax substrates that were capable of inhibiting cleavage of the percent cocktails. In this instance, we tested for “vehicles” which inhibited cleavage of the TOP 1.4% cocktail (they were delivered into the active site). Based upon our results from Step II, the top 1.4% cocktail was composed of Z-Phe-Arg-AFC, the highest cleaved substrate.
The experiment began with a competitor test between the noncleaved low Vmax substrates and the highest Vmax substrate, Z-Phe-Arg-AFC. Concentrations were varied between the low Vmax substrate and Z-Phe-Arg-AFC, as described above under “refinement of assay” until a relative inhibition profile was obtained.
The mixture was allowed to equilibrate for a period of 30 minutes. Finally, active purified enzyme was added to the tubes at a concentration which was always 50 times less than the concentration of the high and low Vmax substrates, in order to insure saturation conditions. This concentration varied from purification to purification and the amount added depended upon the yield and specific activity of the purified protease.
Positive controls were set up similarly as described for test controls, except that solvent was added in substitution for the low Vmax substrate (in a volume equal to the low Vmax volume addition). All of the substrates could be dissolved in dimethylsulfoxide (DMSO), and therefore, this was the solvent of choice. Negative controls were set up by adding the low Vmax and the high Vmax substrate in a tube without the protease. All potential non-proteolytic induced liberation of AFC was therefore controlled for in this tube (a feature which also insured stability of the AFC substrates, since these substrates will freely liberate AFC when unstable). A tube set will be established for this negative control.
All controls were set up in triplicate, and experiments repeated a minimum of five times. The assays were incubated at 37° C., for 18 hours overnight.
Percent inhibition was calculated as: [formula]
A 2.9% cocktail of the high Vmax substrates was made. This was composed of Z-FR-AFC and the second most cleaved substrate, Z-FAR-AFC. The vehicles promoted from the initial screenings above were again tested for competitive inhibition ability with the new cocktails. Their concentrations were set identically to those which were “fixed” in the previous protocols. […]

[2] = tested on: Taenia solium crude mix; test: Competitor assay with crude mix as source of the protease (Step III)
Experimental: In order to prepare the Taenia solium “crude mix” , dry frozen Taenia solium cysts were obtained from 6-12 month old cysticercotic pigs from villages in an endemic area of porcine cysticercosis in Mexico. Metacestodes were carefully dissected from the parasitized tissues, washed three times with PBS, and lyophilized. Parasite extracts were prepared by suspending 0.1 grams of dry frozen cysts in 10 ml of extraction buffer (0.4 M citrate, pH 4.9). The cysts were vortexed for three five-minute intervals with intermittent incubations (5 min) at 4 ° C. Particulate material was removed by centrifugation (20,000 x g, 120 min) and the resulting soluble fraction filtered ([…]). In assay buffers, the detectable amount of the crude mix, as described above, was employed and incubated with the target substrates.
One of the most intriguing findings in this experiment was that a highly similar inhibition pattern for the competitor assay was noted when the crude mix was employed as the source of the target protease. Although there were some variations in the effects of inhibitor dilution, the most highly ranked vehicles remained inhibitory consistently in comparison to the profile with the target protease. The relative profile and composition of the top tiers of vehicles was identical. Z-LLL-AFC, Z-LLY-AFC, Mu-LY-AFC, Boc-VPR-AFC, Z-SY-AFC, Z-RR-AFC, Z-FLF-AFC, Z-LGR-AFC consistently presented as the top eight vehicles (FIG. 5b), respectively, based upon their V values (Table 2). […] It was notable that the three vehicles had very similar V values. […] As was mentioned, this vehicle along with Z-LLL-AFC and Z-LLY-AFC, were consistently the most inhibitory vehicles. The V values of the most inhibitory vehicle series are shown below in Table 2. Again, a clear break between the first and second tier vehicles could be noted with the V value.

[3] = tested on: purified Taenia solium cysteine protease; test: Screen of AFC-linked synthetic substrates for cleavage (Step II); details: pH 4.9, 18 h, 37° C
Experimental: In this step, the most efficacious substrate for detection of the cysteine protease (high Kcat substrate) was determined in vitro along with those substrates which were not well cleaved (low kcat substrates). From this point forth, the following conditions refer to all assays: “assay buffer” refers to 0.4 M Citrate, pH 4.9 (the pH optima of the protease). Incubation time was 18 hours at 37° C. These conditions were determined by our preliminary data to be best for kinetic evaluation of the protease. […] The experiments were conducted in […] Borosilicate mini-culture tubes (Fisher Scientific), and a fluorometer (Turner) was employed for detection of AFC cleavage.
Approximately 1 ug (or a proteolytically detectable amount) of the purified target cysteine protease was incubated individually, with 1 μg of each of the available substrates in 500 μL of assay buffer. During this setup, the substrate was pre-incubated in the assay buffer for a short period of time (20 minutes) in order to reach an equilibrated status before the addition of the protease. Cleavage assessments were based upon the property of the protease to cleave synthetic peptide substrates linked at the C-terminus to 7-Amino-4-Trifluoromethyl Coumarin (AFC) as previously described. AFC linked tripeptides, dipeptides, and monopeptides, (with a variety of permutations at P3-P1) were available from Enzyme Systems Products (Livermore, CA), and were used as the source of the subset. Following incubation of enzyme preparations overnight (18 h, 37 ° C.) with peptide in assay buffer (Citrate, pH 4.9, supplemented with 0.01 M cysteine), free AFC concentrations were measured fluorometrically (excitation […]). The proteolytic cleavage released the AFC group, which was measurable as a free molecule by a standard fluorometer and converted into molar quantities, based upon a previously established standard curve. The simplicity of AFC detection by the fluorometer was a key factor which quickened and simplified the procedures.
In the assay, 1 ug of the purified Taenia cysteine protease was added to a saturating amount of Z-Phe-Arg-AFC (4×10^−5 M) in assay buffer. The experiment was conducted in triplicate and repeated at least 5 times until we were certain that variability in AFC cleavage was not statistically significant.
Vmax was calculated for the cleavage of substrates by the purified target protease and Vmax was calculated for substrates cleaved by the crude mix protease using conventional kinetic modeling calculations already described in the art.

[4] = tested on: purified Taenia solium cysteine protease; test: Protease inactivator inhibition assay (EC100, Ki; Step VII)
Text: Once the protease inactivators were synthesized in the organic laboratory, they were to be tested for the lowest efficacious concentrations at which they induced 100% inhibition of the target protease (EC100). The top percent cocktail that was employed in the final vehicle selection step of Step III was employed as the source of competition for the inhibitors. In this case, this was the […] which was comprised of Z-FR-AFC, Z-FAR-AFC, Z-AP-AFC, Z-AAK-AFC, and Z-VLR-AFC. The final result would be a ranking of transition state candidate protease inactivators with a high ranking directly correlating to a low ECIoo value. The following steps describe the assay:
Step A: Initial Screening. To set up the test control, each protease inactivator was first incubated with the 5% cocktail (which provided the final differentiation of vehicles in Step III). To begin with, the protease inactivator was incubated at a concentration of 3×10^−9M in 500 μl of assay buffer (0.2 M Citrate, pH 4.9 supplemented with 10mM L-cysteine). This concentration was determined, after a series of inhibitor dilutions identified, to be the best inhibitor concentration at which a differentiation in inhibitor potential could be noted. Next, a concentration equal to 4×10^−5M for each of the individual cocktail components, was added to the mix. The components were allowed to equilibrate for a period of 30 minutes. […]
Percent inhibition was calculated as: [formula] […]
Step C: Determination ofInhibitor Ki and mode of inhibition, and re-ranking of EC100 list with inhibitor Ki. Ki of each of the top ranked protease inactivators, based upon low EC100 values, was assessed next for the top 5 EC100 inhibitors.
In order to determine Ki, all of the high Vmax cocktail substrates were employed for Ki determination (since Ki of the inhibitor for the enzyme is the same regardless of the substrate). To insure the highest accuracy, Ki was to be determined upon a minimum of at least three of the high Kcat substrates. […]

| SMILES | V Value (vehicle inhibition quotient, V=P*M) [1] | V Value (vehicle inhibition quotient, V=P*M) [2] | cleavage as substrate (Vmax) [3] | also measured |
| --- | --- | --- | --- | --- |
| CC(C)C[C@H](NC(=O)OC(C)(C)C)C(=O)NCC(=O)N[C@@H](CCCNC(=N)N)C(=O)Nc1ccc2c(C(F)(F)F)cc(=O)oc2c1 [B-LGR-AFC] (Boc-Leu-Gly-Arg-{AFC}) | 0.07 | 0.02 |  |  |
| CC(C)[C@H](NC(=O)OC(C)(C)C)C(=O)N1CCC[C@H]1C(=O)N[C@@H](CCCNC(=N)N)C(=O)Nc1ccc2c(C(F)(F)F)cc(=O)oc2c1 [B-VPR-AFC, Boc-Val-Pro-Arg-AFC] (Boc-Val-Pro-Arg-{AFC}) |  |  | noncleavable |  |
| CC(C)C[C@H](NC(=O)[C@H](Cc1ccccc1)NC(=O)OCc1ccccc1)C(=O)N[C@@H](Cc1ccccc1)C(=O)Nc1ccc2c(C(F)(F)F)cc(=O)oc2c1 [Z-FLF-AFC] (Cbz-Phe-Leu-Phe-{AFC}) | 0.100 | 0.10 |  |  |
| CC(C)C[C@H](NC(=O)OCc1ccccc1)C(=O)NCC(=O)N[C@@H](CCCNC(=N)N)C(=O)Nc1ccc2c(C(F)(F)F)cc(=O)oc2c1 [Z-LGR-AFC, Z-Leu-Gly-Arg-AFC] (Cbz-Leu-Gly-Arg-{AFC}) |  |  | noncleavable |  |
| CC(C)C[C@@H](/C=C/S(C)(=O)=O)NC(=O)[C@H](CC(C)C)NC(=O)[C@H](CC(C)C)NC(=O)OCc1ccccc1 [Z-LLL-VS, Z-Leu-Leu-Leu-vinylsulfone] |  |  |  | ranking of protease inactivators by inhibition / EC100 [4]: top inhibitors |
| NC(N)=NCCCC(NC(=O)C(Cc1ccccc1)NC(=O)OCc1ccccc1)C(=O)Nc1ccc2c(C(F)(F)F)cc(=O)oc2c1 (stereo not drawn) [Z-Phe-Arg-AFC] (Cbz-Phe-Arg-{AFC}; configuration not given here) |  |  | highest Vmax |  |
| NC(N)=NCCC[C@H](NC(=O)OCc1ccccc1)C(=O)N[C@@H](CCCN=C(N)N)C(=O)Nc1ccc2c(C(F)(F)F)cc(=O)oc2c1 [Z-RR-AFC] (Cbz-Arg-Arg-{AFC}) |  | 0.09 |  |  |
| O=C(N[C@@H](CO)C(=O)N[C@@H](Cc1ccc(O)cc1)C(=O)Nc1ccc2c(C(F)(F)F)cc(=O)oc2c1)OCc1ccccc1 [Z-SY-AFC] (Cbz-Ser-Tyr-{AFC}) | 0.090 | 0.09 |  |  |
